# Measured values as given in ChEMBL document CHEMBL4007388, “Synthesis and antiproliferative activity of monocationic arylthiophene derivatives” (Eur J Med Chem, 2017).
# Experiments:
# SK-OV-3 = assay: Growth inhibition of human SKOV3 cells incubated for 48 hrs by sulforhodamine B assay; type: functional; conditions: SK-OV-3, 48 h
# A549 = assay: Growth inhibition of human A549/ATCC cells incubated for 48 hrs by sulforhodamine B assay; type: functional; conditions: A549, 48 h
# OVCAR-5 = assay: Growth inhibition of human OVCAR5 cells incubated for 48 hrs by sulforhodamine B assay; type: functional; conditions: OVCAR-5, 48 h
# Hs-578T = assay: Growth inhibition of human Hs 578T cells incubated for 48 hrs by sulforhodamine B assay; type: functional
# ACHN = assay: Growth inhibition of human ACHN cells incubated for 48 hrs by sulforhodamine B assay; type: functional
# SW-620 = assay: Growth inhibition of human SW620 cells incubated for 48 hrs by sulforhodamine B assay; type: functional; conditions: SW-620, 48 h
# U-251 = assay: Growth inhibition of human U251 cells incubated for 48 hrs by sulforhodamine B assay; type: functional; conditions: U-251, 48 h
# NCI-H23 = assay: Growth inhibition of human NCI-H23 cells incubated for 48 hrs by sulforhodamine B assay; type: functional; conditions: NCI-H23, 48 h
# DU-145 = assay: Growth inhibition of human DU145 cells incubated for 48 hrs by sulforhodamine B assay; type: functional; conditions: DU-145, 48 h
# SF-268 = assay: Growth inhibition of human SF268 cells incubated for 48 hrs by sulforhodamine B assay; type: functional; conditions: SF-268, 48 h
# OVCAR-4 = assay: Growth inhibition of human OVCAR4 cells incubated for 48 hrs by sulforhodamine B assay; type: functional; conditions: OVCAR-4, 48 h
# CCRF-CEM = assay: Growth inhibition of human CCRF-CEM cells incubated for 48 hrs by sulforhodamine B assay; type: functional
# BT-549 = assay: Growth inhibition of human BT549 cells incubated for 48 hrs by sulforhodamine B assay; type: functional; conditions: BT-549, 48 h
# SN12C = assay: Growth inhibition of human SN12C cells incubated for 48 hrs by sulforhodamine B assay; type: functional
# WI-38 = assay: Cytotoxicity against human WI38 cells assessed as reduction in cell viability after 24 hrs by MTT assay; type: cell-based; conditions: WI-38, 24 h
# OVCAR-3 = assay: Growth inhibition of human OVCAR3 cells incubated for 48 hrs by sulforhodamine B assay; type: functional; conditions: OVCAR-3, 48 h
# UO-31 = assay: Growth inhibition of human UO31 cells incubated for 48 hrs by sulforhodamine B assay; type: functional; conditions: UO-31, 48 h
# RXF 393 = assay: Growth inhibition of human RXF393 cells incubated for 48 hrs by sulforhodamine B assay; type: functional; conditions: RXF 393, 48 h
# SF-539 = assay: Growth inhibition of human SF539 cells incubated for 48 hrs by sulforhodamine B assay; type: functional; conditions: SF-539, 48 h
# MCF7 = assay: Growth inhibition of human MCF7 cells incubated for 48 hrs by sulforhodamine B assay; type: functional; conditions: MCF7, 48 h
# NCI-H226 = assay: Growth inhibition of human NCI-H226 cells incubated for 48 hrs by sulforhodamine B assay; type: functional; conditions: NCI-H226, 48 h
# SNB-19 = assay: Growth inhibition of human SNB19 cells incubated for 48 hrs by sulforhodamine B assay; type: functional; conditions: SNB-19, 48 h
# LOX IMVI = assay: Growth inhibition of human LOXIMVI cells incubated for 48 hrs by sulforhodamine B assay; type: functional
# NCI-H460 = assay: Growth inhibition of human NCI-H460 cells incubated for 48 hrs by sulforhodamine B assay; type: functional; conditions: NCI-H460, 48 h
# NCI-H522 = assay: Growth inhibition of human NCI-H522 cells incubated for 48 hrs by sulforhodamine B assay; type: functional; conditions: NCI-H522, 48 h
# [1] = Antioxidant activity assessed as superoxide dismutase-like activity by measuring inhibition of superoxide radical anion production at 2 uM by NBT reduction assay relative to control; type: functional
# HCC 2998 = assay: Growth inhibition of human HCC2998 cells incubated for 48 hrs by sulforhodamine B assay; type: functional; conditions: HCC 2998, 48 h
# MDA-MB-468 = assay: Growth inhibition of human MDA-MB-468 cells incubated for 48 hrs by sulforhodamine B assay; type: functional; conditions: MDA-MB-468, 48 h
# OVCAR-8 = assay: Growth inhibition of human OVCAR8 cells incubated for 48 hrs by sulforhodamine B assay; type: functional; conditions: OVCAR-8, 48 h
# SK-MEL-5 = assay: Growth inhibition of human SK-MEL-5 cells incubated for 48 hrs by sulforhodamine B assay; type: functional; conditions: SK-MEL-5, 48 h
# KM12 = assay: Growth inhibition of human KM12 cells incubated for 48 hrs by sulforhodamine B assay; type: functional; conditions: KM12, 48 h
# [2] = Growth inhibition of human NCI60 cells at 10 uM after 48 hrs by SRB assay relative to control; values are per cent of control; conditions: NCI60, 48 h
# K562 = assay: Growth inhibition of human K562 cells incubated for 48 hrs by sulforhodamine B assay; type: functional; conditions: K562, 48 h
# CAKI-1 = assay: Growth inhibition of human Caki1 cells incubated for 48 hrs by sulforhodamine B assay; type: functional; conditions: CAKI-1, 48 h
# Malme-3M = assay: Growth inhibition of human MALME-3M cells incubated for 48 hrs by sulforhodamine B assay; type: functional
# IGROV-1 = assay: Growth inhibition of human IGROV1 cells incubated for 48 hrs by sulforhodamine B assay; type: functional; conditions: IGROV-1, 48 h
# NCI-H322M = assay: Growth inhibition of human NCI-H322M cells incubated for 48 hrs by sulforhodamine B assay; type: functional
# HT-29 = assay: Growth inhibition of human HT-29 cells incubated for 48 hrs by sulforhodamine B assay; type: functional; conditions: HT-29, 48 h
# NCI/ADR-RES = assay: Growth inhibition of human NCI/ADR-RES cells incubated for 48 hrs by sulforhodamine B assay; type: functional
# HOP-62 = assay: Growth inhibition of human HOP62 cells incubated for 48 hrs by sulforhodamine B assay; type: functional; conditions: HOP-62, 48 h
# SK-MEL-2 = assay: Growth inhibition of human SK-MEL-2 cells incubated for 48 hrs by sulforhodamine B assay; type: functional; conditions: SK-MEL-2, 48 h
# HL-60(TB) = assay: Growth inhibition of human HL-60(TB) cells incubated for 48 hrs by sulforhodamine B assay; type: functional; conditions: HL-60, 48 h
# WISH = assay: Cytotoxicity against human WISH cells assessed as reduction in cell viability after 24 hrs by MTT assay; type: cell-based
# TK-10 = assay: Growth inhibition of human TK10 cells incubated for 48 hrs by sulforhodamine B assay; type: functional; conditions: TK-10, 48 h
# HCT-116 = assay: Growth inhibition of human HCT116 cells incubated for 48 hrs by sulforhodamine B assay; type: functional; conditions: HCT-116, 48 h
# SR = assay: Growth inhibition of human SR cells incubated for 48 hrs by sulforhodamine B assay; type: functional
# UACC-257 = assay: Growth inhibition of human UACC257 cells incubated for 48 hrs by sulforhodamine B assay; type: functional; conditions: UACC-257, 48 h
# SK-MEL-28 = assay: Growth inhibition of human SK-MEL-28 cells incubated for 48 hrs by sulforhodamine B assay; type: functional; conditions: SK-MEL-28, 48 h
structure (smiles),measurement,setting,value
COc1cc(OC)cc(-c2ccc(-c3ccc(C(=N)N)cc3)s2)c1,GI50,SK-OV-3,2.08 µM
same,GI50,A549,2.58 µM
same,GI50,OVCAR-5,1.9 µM
same,GI50,Hs-578T,1.99 µM
same,GI50,ACHN,1.77 µM
same,GI50,SW-620,1950 nM
same,GI50,U-251,1670 nM
same,GI50,NCI-H23,1.92 µM
same,GI50,DU-145,1.77 µM
same,GI50,SF-268,1.85 µM
same,GI50,OVCAR-4,2.06 µM
same,GI50,CCRF-CEM,1880 nM
same,GI50,BT-549,1.8 µM
same,GI50,SN12C,1.97 µM
same,IC50,WI-38,73.9 µM
same,GI50,OVCAR-3,1.95 µM
same,GI50,UO-31,1770 nM
same,GI50,RXF 393,1.81 µM
same,GI50,SF-539,1.75 µM
same,GI50,MCF7,1220 nM
same,GI50,NCI-H226,2.23 µM
same,GI50,SNB-19,1.97 µM
same,GI50,LOX IMVI,924 nM
same,GI50,NCI-H460,1840 nM
same,GI50,NCI-H522,1960 nM
same,inhibition,[1],57%
same,GI50,HCC 2998,1820 nM
same,GI50,MDA-MB-468,1680 nM
same,GI50,OVCAR-8,2.48 µM
same,GI50,SK-MEL-5,1810 nM
same,GI50,KM12,1840 nM
same,growth percent at 10 µM,[2],-74.1%
same,GI50,K562,418 nM
same,GI50,CAKI-1,1810 nM
same,GI50,Malme-3M,1840 nM
same,GI50,IGROV-1,2.11 µM
same,GI50,NCI-H322M,1690 nM
same,GI50,HT-29,1090 nM
same,GI50,NCI/ADR-RES,1.97 µM
same,GI50,HOP-62,1.9 µM
same,GI50,SK-MEL-2,1950 nM
same,GI50,HL-60(TB),1900 nM
same,IC50,WISH,87.2 µM
same,GI50,TK-10,1.97 µM
same,GI50,HCT-116,1760 nM
same,GI50,SR,231 nM
same,GI50,UACC-257,2760 nM
same,GI50,SK-MEL-28,1790 nM
COc1ccc(-c2ccc(-c3ccc(C(=N)N)c(F)c3)s2)cc1,GI50,SK-OV-3,9.21 µM
same,GI50,A549,4.76 µM
same,GI50,OVCAR-5,4.98 µM
same,GI50,Hs-578T,4.82 µM
same,GI50,ACHN,4.24 µM
same,GI50,SW-620,1920 nM
same,GI50,U-251,2920 nM
same,GI50,NCI-H23,11 µM
same,GI50,DU-145,6.25 µM
same,GI50,SF-268,4.85 µM
same,GI50,OVCAR-4,6.42 µM
same,GI50,CCRF-CEM,3110 nM
same,GI50,BT-549,5.9 µM
same,GI50,SN12C,5.97 µM
same,IC50,WI-38,104 µM
same,GI50,OVCAR-3,9.77 µM
same,GI50,UO-31,3170 nM
same,GI50,RXF 393,4.68 µM
same,GI50,SF-539,8.96 µM
same,GI50,MCF7,2080 nM
same,GI50,NCI-H226,14.4 µM
same,GI50,SNB-19,9.44 µM
same,GI50,LOX IMVI,2230 nM
same,GI50,NCI-H460,2430 nM
same,GI50,NCI-H522,3730 nM
same,inhibition,[1],55%
same,GI50,HCC 2998,1850 nM
same,GI50,MDA-MB-468,1390 nM
same,GI50,OVCAR-8,8.22 µM
same,GI50,SK-MEL-5,2670 nM
same,GI50,KM12,3160 nM
same,growth percent at 10 µM,[2],-80.5%
same,GI50,K562,2660 nM
same,GI50,CAKI-1,3940 nM
same,GI50,Malme-3M,2150 nM
same,GI50,IGROV-1,4.38 µM
same,GI50,NCI-H322M,3580 nM
same,GI50,HT-29,2790 nM
same,GI50,NCI/ADR-RES,10.1 µM
same,GI50,HOP-62,10.4 µM
same,GI50,SK-MEL-2,2410 nM
same,GI50,HL-60(TB),2190 nM
same,IC50,WISH,112 µM
same,GI50,TK-10,4.33 µM
same,GI50,HCT-116,3040 nM
same,GI50,SR,3170 nM
same,GI50,UACC-257,1840 nM
same,GI50,SK-MEL-28,2310 nM
